Measurements as given in patent US20080262097A1, “Formulations” (priority 2005, published 2008).
Values after ≈ are worked out from the molar mass of the structure shown. Where two headings read alike, the source gives them in different places.

Columns and labels:
P. acnes PRP-053 = experiment: MBC assay; format: cell-based, Propionibacterium acnes; details: Cutibacterium acnes, PRP053; P. acnes PRP-053 (resistance Tet/MLS)
Method: (§1) Other propionibacterial strains were also tested, as described in Example 8 below. These included certain antibiotic resistant propionibacteria, such as the two P. acnes strains PRP-010 and PRP-053 which are resistant respectively to macrolides-lincosamides-streptogramins-ketolides (MLSK) and to macrolides-lincosamides-streptogramins (MLS) and tetracycline—in other words, PRP-010 is resistant to erythromycin and clindamycin, and […] to erythromycin, clindamycin and tetracycline.
(§2) The Propionibacterium spp organisms were cultured and maintained on Wilkins-Chalgren Anaerobe Medium (agar and broth) at pH 6.0; cultures were incubated anaerobically at 37° C. for 72 hours.
(§3) This assay, normally carried out after an MIC assay, determines the minimum concentration of a compound that is lethal to the micro-organism being tested.
(§4) These samples were then individually sub-cultured on non-selective agar medium, under the incubation conditions described above. Following incubation they were examined visually for bacterial growth.

P. acnes PRP-010 = experiment: MBC assay; format: cell-based, Propionibacterium acnes; details: Cutibacterium acnes, PRP010; P. acnes PRP-010 (resistance MLSK)
Method: as §1, §2, §3, §4

S. aureus ATCC 12607 [1] = experiment: Disc diffusion assay (DDA); format: cell-based, Staphylococcus aureus; details: zone diameter, 200 μg per disc
Method: (§5) The staphylococci and enterococci were cultured and maintained on Mueller-Hinton Medium (agar and broth) at pH 7.2; they were incubated aerobically at 37° C. for 24 hours.
(§6) A sterile paper disc was impregnated with a sample of the test compound and a minimum of 30 minutes allowed for the solvents to evaporate as far as possible. The disc was then placed on an agar plate onto which the test micro-organism had been inoculated. The plate was then incubated under the conditions described above, following which it was examined visually for signs of bacterial growth. If the test compound had antimicrobial activity, a circular zone of no growth would be obtained around the disc. The diameter of this zone of “inhibition” was measured using a ProtoCOL™ automated zone sizer (Synbiosis, Cambridge, UK). In general, a greater diameter and/or area of the zone of inhibition indicates a greater antimicrobial activity in the relevant test compound, although other factors such as test compound mobility through the agar gel may also influence the result.
(§7) The area of the zone of inhibition was calculated from the measured zone diameter (D) using the formula π(D/2)^2.

S. aureus CPHL EMRSA 17 [2] = experiment: Disc diffusion assay (DDA); format: cell-based, Staphylococcus aureus; details: zone diameter, 200 μg per disc
Method: as §5, §6, §7

S. aureus ATCC 12601 [3] = experiment: Disc diffusion assay (DDA); format: cell-based, Staphylococcus aureus; details: zone diameter, 200 μg per disc
Method: as §5, §6, §7

S. aureus ATCC 12602 [4] = experiment: Disc diffusion assay (DDA); format: cell-based, Staphylococcus aureus; details: zone diameter, 200 μg per disc
Method: as §5, §6, §7

[5] = system: S. aureus CPHL GISA HO41340156; experiment: Disc diffusion assay (DDA); format: cell-based, Staphylococcus aureus; details: zone diameter, 200 μg per disc
Method: as §5, §6, §7

S. aureus ATCC 25923 = experiment: Disc diffusion assay (DDA); format: cell-based, Staphylococcus aureus; details: zone diameter, 200 μg per disc
Method: as §5, §6, §7

S. aureus ATCC 12606 = experiment: Disc diffusion assay (DDA); format: cell-based, Staphylococcus aureus; details: zone diameter, 200 μg per disc
Method: as §5, §6, §7

S. aureus CPHL VISA Mu50 = experiment: Disc diffusion assay (DDA); format: cell-based, Staphylococcus aureus; details: zone diameter, 200 μg per disc
Method: as §5, §6, §7

S. aureus ATCC 12605 [6] = experiment: Disc diffusion assay (DDA); format: cell-based, Staphylococcus aureus; details: zone diameter, 200 μg per disc
Method: as §5, §6, §7

[7] = system: S. saprophyticus NCTC 7292; experiment: MBC assay; format: cell-based; details: Staphylococcus saprophyticus, NCTC7292
Method: as §5, §3, §4

[8] = system: Staphylococcus cohnii ATCC 29974; experiment: MBC assay; format: cell-based; details: ATCC29974
Method: as §5, §3, §4

S. aureus ATCC 12607 [9] = experiment: MBC assay; format: cell-based; details: Staphylococcus aureus, ATCC12607
Method: as §5, §3, §4

[10] = system: Staphylococcus capitis ATCC 27840; experiment: MBC assay; format: cell-based; details: ATCC27840
Method: as §5, §3, §4

S. aureus CPHL VISA Mu3 = experiment: MBC assay; format: cell-based; details: Staphylococcus aureus
Method: as §5, §3, §4

[11] = system: S. epidermidis (NCTC 11047); experiment: MBC assay; format: cell-based; details: Staphylococcus epidermidis, NCTC11047
Method: as §5, §3, §4

S. aureus CPHL EMRSA 17 [12] = experiment: MBC assay; format: cell-based; details: Staphylococcus aureus
Method: as §5, §3, §4

S. aureus ATCC 12601 [13] = experiment: MBC assay; format: cell-based; details: Staphylococcus aureus, ATCC12601
Method: as §5, §3, §4

[14] = system: Staphylococcus simulans ATCC 27848; experiment: MBC assay; format: cell-based; details: ATCC27848
Method: as §5, §3, §4

[15] = system: Staphylococcus hominis ATCC 27844; experiment: MBC assay; format: cell-based; details: ATCC27844
Method: as §5, §3, §4

[16] = system: Staphylococcus warneri ATCC 27836; experiment: MBC assay; format: cell-based; details: ATCC27836
Method: as §5, §3, §4

S. aureus ATCC 12602 [17] = experiment: MBC assay; format: cell-based; details: Staphylococcus aureus, ATCC12602
Method: as §5, §3, §4

[18] = system: Staphylococcus auricularis ATCC 33753; experiment: MBC assay; format: cell-based; details: ATCC33753
Method: as §5, §3, §4

[19] = system: S. aureus CPHL GISA HO41340156; experiment: MBC assay; format: cell-based; details: Staphylococcus aureus
Method: as §5, §3, §4

[20] = system: Staphylococcus aureus ATCC 12600; experiment: MBC assay; format: cell-based; details: ATCC12600
Method: as §5, §3, §4

[21] = system: Staphylococcus xylosus ATCC 29971; experiment: MBC assay; format: cell-based; details: ATCC29971
Method: as §5, §3, §4

S. aureus ATCC 12605 [22] = experiment: MBC assay; format: cell-based; details: Staphylococcus aureus, ATCC12605
Method: as §5, §3, §4

S. aureus ATCC 12604 = experiment: MBC assay; format: cell-based; details: Staphylococcus aureus, ATCC12604
Method: as §5, §3, §4

| Structure (SMILES) | MBC (P. acnes PRP-053) | MBC (P. acnes PRP-010) | DDA (S. aureus ATCC 12607 [1]) | DDA (S. aureus CPHL EMRSA 17 [2]) | DDA (S. aureus ATCC 12601 [3]) | DDA (S. aureus ATCC 12602 [4]) | DDA [5] | DDA (S. aureus ATCC 25923) | DDA (S. aureus ATCC 12606) | DDA (S. aureus CPHL VISA Mu50) | DDA (S. aureus ATCC 12605 [6]) | MBC [8] | MBC (S. aureus ATCC 12607 [9]) | MBC [10] | MBC (S. aureus CPHL VISA Mu3) | MBC [15] | MBC (S. aureus ATCC 12602 [17]) | MBC [18] | MBC (S. aureus ATCC 12605 [22]) | further results |
| --- | --- | --- | --- | --- | --- | --- | --- | --- | --- | --- | --- | --- | --- | --- | --- | --- | --- | --- | --- | --- |
| O=C(OOC(=O)c1ccccc1)c1ccccc1 [benzoyl peroxide] | 62.5 µg/mL (≈ 258 µM) | 31.2 µg/mL (≈ 129 µM) | 12.31 mm | 11.74 mm | 11.68 mm | 12.73 mm | 12.16 mm | 10.86 mm | 11.68 mm | 11.64 mm | 12.20 mm | 125 µg/mL (≈ 516 µM) | 250 µg/mL (≈ 1030 µM) | 250 µg/mL (≈ 1030 µM) | 125 to 250 µg/mL (≈ 516 to 1030 µM) | 250 µg/mL (≈ 1030 µM) | 125 µg/mL (≈ 516 µM) | 62.5 µg/mL (≈ 258 µM) | 250 µg/mL (≈ 1030 µM) | MBC ([7]; S. saprophyticus NCTC 7292, read-out: MBC): > 250 µg/mL; MBC ([11]; S. epidermidis NCTC 11047, read-out: MBC): 250 µg/mL (≈ 1030 µM); MBC (S. aureus CPHL EMRSA 17 [12]): 125 to 250 µg/mL (≈ 516 to 1030 µM); MBC (S. aureus ATCC 12601 [13]; S. aureus ATCC 12601, read-out: MBC): 250 µg/mL (≈ 1030 µM); MBC ([14]; Staphylococcus simulans ATCC 27848, read-out: MBC): > 250 µg/mL; MBC ([16]; Staphylococcus warneri ATCC 27836, read-out: MBC): > 250 µg/mL; MBC ([19]; S. aureus CPHL GISA HO41340156 (Van/Tec intermediate), read-out: MBC): 250 µg/mL (≈ 1030 µM); MBC ([20]; Staphylococcus aureus ATCC 12600, read-out: MBC): 250 µg/mL (≈ 1030 µM); MBC ([21]; Staphylococcus xylosus ATCC 29971, read-out: MBC): 250 µg/mL (≈ 1030 µM); MBC (S. aureus ATCC 12604; S. aureus ATCC 12604, read-out: MBC): 250 µg/mL (≈ 1030 µM) |
| CC(C)(C)c1cc(O)ccc1O [TBHQ, t-butyl hydroquinone] | 7.8 µg/mL (≈ 46.9 µM) | 15.6 µg/mL (≈ 93.9 µM) | 54.50 mm | 51.05 mm | 57.34 mm | 57.66 mm | 75.37 mm | 44.70 mm | 53.34 mm | 50.11 mm | 59.55 mm | 7.8 µg/mL (≈ 46.9 µM) | 3.9 µg/mL (≈ 23.5 µM) | 3.9 µg/mL (≈ 23.5 µM) | 7.8 µg/mL (≈ 46.9 µM) | 3.9 µg/mL (≈ 23.5 µM) | 7.8 µg/mL (≈ 46.9 µM) | 1.95 µg/mL (≈ 11.7 µM) | 3.9 µg/mL (≈ 23.5 µM) | MBC [7]: 7.8 µg/mL (≈ 46.9 µM); MBC [11]: 7.8 µg/mL (≈ 46.9 µM); MBC (S. aureus CPHL EMRSA 17 [12]; S. aureus CPHL EMRSA 17 (resistance Met/β-lactams), read-out: MBC): 3.9 µg/mL (≈ 23.5 µM); MBC (S. aureus ATCC 12601 [13]): 15.6 µg/mL (≈ 93.9 µM); MBC ([14]; Staphylococcus simulans): 31.2 µg/mL (≈ 188 µM); MBC ([16]; Staphylococcus warneri): 7.8 µg/mL (≈ 46.9 µM); MBC [19]: 15.6 µg/mL (≈ 93.9 µM); MBC ([20]; Staphylococcus aureus): 7.8 µg/mL (≈ 46.9 µM); MBC ([21]; Staphylococcus xylosus): 15.6 µg/mL (≈ 94 µM); MBC (S. aureus ATCC 12604): 7.8 µg/mL (≈ 46.9 µM) |
